Several values for one entry are separate records, joined by “and”; a condition that tells them apart may be missing. Identical values can stand only once.
Experiments:
[1] = target: T1, progesterone receptor (PR) (Homo sapiens, UniProt P06401); test: T47D cell alkaline phosphatase assay; format: cell-based; details: for IC50: read-out: Alk. Phos. IC50; for inhibition at 3 µM: T47D, read-out: Alk. Phos. % inh @ 3 μM
T1 construct: endogenous in cells; host or cells: T47D cells
T1 sequence (P06401 1-933): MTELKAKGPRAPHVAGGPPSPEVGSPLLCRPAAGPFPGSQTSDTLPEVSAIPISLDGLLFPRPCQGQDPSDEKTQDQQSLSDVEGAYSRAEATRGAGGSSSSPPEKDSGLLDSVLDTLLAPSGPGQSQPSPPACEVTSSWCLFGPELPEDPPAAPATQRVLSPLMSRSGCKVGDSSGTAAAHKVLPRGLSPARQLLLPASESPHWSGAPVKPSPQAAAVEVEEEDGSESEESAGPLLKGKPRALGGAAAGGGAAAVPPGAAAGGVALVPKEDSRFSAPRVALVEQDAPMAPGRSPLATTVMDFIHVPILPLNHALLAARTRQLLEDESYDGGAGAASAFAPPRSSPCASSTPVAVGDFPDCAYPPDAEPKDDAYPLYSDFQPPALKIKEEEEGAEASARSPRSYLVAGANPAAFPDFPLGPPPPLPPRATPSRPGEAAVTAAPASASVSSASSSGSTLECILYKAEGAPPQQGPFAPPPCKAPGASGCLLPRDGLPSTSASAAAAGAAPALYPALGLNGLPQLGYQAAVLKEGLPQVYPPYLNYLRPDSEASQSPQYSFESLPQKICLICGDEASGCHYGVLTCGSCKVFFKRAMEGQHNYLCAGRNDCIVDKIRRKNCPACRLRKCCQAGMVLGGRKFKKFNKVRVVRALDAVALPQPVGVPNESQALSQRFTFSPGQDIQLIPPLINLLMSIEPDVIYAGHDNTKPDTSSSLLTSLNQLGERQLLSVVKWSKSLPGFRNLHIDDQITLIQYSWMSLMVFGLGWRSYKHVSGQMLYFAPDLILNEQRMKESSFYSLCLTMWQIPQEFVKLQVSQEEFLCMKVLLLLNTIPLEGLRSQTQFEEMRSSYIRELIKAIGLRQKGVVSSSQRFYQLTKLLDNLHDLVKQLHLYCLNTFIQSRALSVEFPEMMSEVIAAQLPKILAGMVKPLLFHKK
Description: (i) Purpose: To identify progestins or antiprogestins by determining a compound's effect on alkaline phosphatase activity in T47D cells.
A. Reagents • (i) Culture Medium: • DMEM:F12 (1:1) (GIBCO, BRL) supplemented with 5% (v/v) charcoal stripped fetal bovine serum (not heat-inactivated), 100U/mL penicillin, […] streptomycin, and 2 mM the GlutaMax™ reagent (GIBCO, BRL). • (ii) Alkaline phosphatase assay buffer: • I. 0.1 M Tris-HCl, pH 9.8, containing 0.2% the Triton™ X-100 reagent; • II. 0.1 M Tris-HCl, pH 9.8 containing 4 mM p-nitrophenyl phosphate (Sigma).
B. Cell Culture and Treatment • Frozen T47D cells were thawed in a 37° C. water bath and diluted to 280,000 cells/mL in culture medium. To each well in a 96-well plate (Falcon, Becton Dickinson Labware), 180 ? L of diluted cell suspension was added. Twenty ? L of reference or test compounds diluted in the culture medium was then added to each well. […] The cells were incubated at 37° C. in a 5% CO2/humidified atmosphere for 24 hours. • Note: For high throughput screening, one concentration of each compound was tested at 0.3 mg/mL. Based on an average molecular weight of 300 g/mol for the compounds in the library, the concentration was approximately 1 mM.
C. Alkaline Phosphatase Enzyme Assay • At the end of treatment, the medium was removed from the plate. Fifty ? L of assay buffer I was added to each well. The plates were shaken in a titer plate shaker for 15 minutes. Then 150 ? L of assay buffer II was added to each well.
Square root-transformed data were used for analysis of variance and nonlinear dose response curve fitting for both agonist and antagonist modes. Huber weighting was used to downweight the effects of outliers. EC50 or IC50 values were calculated from the retransformed values. JMP software (SAS Institute, Inc.) was used for both one-way analysis of variance and non-linear dose response analyses in both single dose and dose response studies.

[2] = system: rat uterine decidualization; test: Rat decidualization assay; format: in vivo; details: for Estimated average EC50: s.c., average of dose-response curves, rat decidual response
Description: C. […] The animals are treated once daily for seven days.
Uteri are removed and trimmed of fat.
Decidual response: [(D−C)/C]×100%

[3] = system: T47D cells; test: T47D cell proliferation assay (BrdU incorporation); format: cell-based
Description: (a) Objective: Determination of progestational and antiprogestational potency by using a cell proliferation assay in T47D cells. A compound's effect on DNA synthesis in T47D cells is measured.
A. Reagents • (i) Growth medium: DMEM:F12 (1:1) (GIBCO, BRL) supplemented with 10% (v/v) fetal bovine serum (not heat-inactivated), 100U/mL penicillin, […] streptomycin, and 2 mM GlutaMax™ media (GIBCO, BRL). • (ii) Treatment medium: Minimum Essential Medium (MEM) (#51200-038GIBCO, BRL) phenol red-free supplemented with 0.5% charcoal stripped fetal bovine serum, 100U/mL penicillin, […] streptomycin, and 2 mM GlutaMax™ media (GIBCO, BRL).
B. Cell Culture • Stock T47 D cells are maintained in growth medium. […]
C. Cell Proliferation Assay • At the end of BrdU labeling, the medium is removed and BrdU incorporation is measured using a cell proliferation ELISA kit (#RPN 250, Amersham Life Science) according to manufacturer's instructions. […] L of 1 M sulfuric acid is added to each well to stop color reaction and optical density is read in a plate reader at 450 nm within 5 minutes.
D. Analysis of Results • Square root-transformed data are used for analysis of variance and nonlinear dose response curve fitting for both agonist and antagonist modes. […] EC50 or IC50 values are calculated from the retransformed values. […]

N#Cc1ccc(-c2ccc3c(c2)CC/C3=N\O)cc1 [Example 7, 4-[(1E)-1-(hydroxyimino)-2,3-dihydro-1H-inden-5-yl]benzonitrile]
IC50 [1]: ~1000 nM

COc1cccc(-c2ccc3c(c2)C(C)(C)C/C3=N\O)c1 [Example 38, (1E)-5-(3-methoxyphenyl)-3,3-dimethylindan-1-one oxime]
inhibition at 3 µM [1]: 42%

Cc1cccc(-c2ccc3c(c2)C(C)(C)C/C3=N\O)c1 [Example 37, (1E)-3,3-dimethyl-5-(3-methylphenyl)indan-1-one oxime]
inhibition at 3 µM [1]: 65%

Cn1c(C#N)ccc1-c1ccc2c(c1)CCC/C2=N\O [Example 15, 5-[(5E)-5-(hydroxyimino)-5,6,7,8-tetrahydronaphthalen-2-yl]-1-methyl-1H-pyrrole-2-carbonitrile]
IC50 [1]: 32.6 nM

CC1(C)C/C(=N\O)c2ccc(-c3cc(Cl)cc(Cl)c3)cc21 [Example 39, (1E)-5-(3,5-dichlorophenyl)-3,3-dimethylindan-1-one oxime]
inhibition at 3 µM [1]: 30%

N#Cc1cccc(-c2ccc3c(c2)CC/C3=N\O)c1 [Example 6, 3-[(1E)-1-(hydroxyimino)-2,3-dihydro-1H-inden-5-yl]benzonitrile]
IC50 [1]: ~3000 nM

CC1(C)C/C(=N\O)c2ccc(-c3cccc(Cl)c3Cl)cc21 [Example 42, (1E)-5-(2,3-dichlorophenyl)-3,3-dimethylindan-1-one oxime]
inhibition at 3 µM [1]: 100%

CC1C/C(=N\O)c2ccc(-c3ccc(C#N)n3C)cc21 (stereo not shown) [Example 3, 5-[(1E)-1-(hydroxyimino)-3-methyl-2,3-dihydro-1H-inden-5-yl]-1-methyl-1H-pyrrole-2-carbonitrile]
IC50 [1]: 65 nM

Cc1ccc(-c2ccc3c(c2)C(C)(C)C/C3=N\O)cc1 [Example 34, (1E)-3,3-dimethyl-5-(4-methylphenyl)indan-1-one oxime]
inhibition at 3 µM [1]: 68%

CC1(C)C/C(=N\O)c2ccc(-c3ccc(Cl)cc3)cc21 [Example 33, (1E)-5-(4-chlorophenyl)-3,3-dimethylindan-1-one oxime]
inhibition at 3 µM [1]: 100%

CC1(C)C/C(=N\O)c2ccc(-c3cccc(Cl)c3)cc21 [Example 36, (1E)-5-(3-chlorophenyl)-3,3-dimethylindan-1-one oxime]
inhibition at 3 µM [1]: 70%

COc1ccc(-c2ccc3c(c2)C(C)(C)C/C3=N\O)cc1 [Example 35, (1E)-5-(4-methoxyphenyl)-3,3-dimethylindan-1-one oxime]
inhibition at 3 µM [1]: 63%

C#C[C@]1(O)CC[C@H]2[C@@H]3CCC4=CC(=O)CC[C@@H]4[C@H]3CC[C@@]21CC [Levonorgestrel]
Estimated average EC50 [2]: 0.10 mg/kg

CC1(C)C/C(=N\O)c2ccc(-c3ccccc3Cl)cc21 [Example 40, (1E)-5-(2-chlorophenyl)-3,3-dimethylindan-1-one oxime]
inhibition at 3 µM [1]: 62%

CC#C[C@]1(O)CC[C@H]2[C@@H]3CCC4=CC(=O)CCC4=C3[C@@H](c3ccc(N(C)C)cc3)C[C@@]21C [RU486]
Estimated IC50 ([2]; p.o., half-maximal decrease in EC50 progesterone induced decidual response, individual Exp): 0.21 mg/kg and 0.14 mg/kg | IC50 ([3]; half-maximal decrease in 0.1 trimegestone induced BrdU incorporation in T47D cells, individual Exp, read-out: EC50 (Estimated IC50)): 0.016 nM and 0.018 nM

C#C[C@]1(O)CC[C@H]2[C@@H]3CCC4=CC(=O)CC[C@@H]4[C@H]3C(=C)C[C@@]21CC [3-Ketodesogestrel]
Estimated average EC50 [2]: 0.10 mg/kg

CC1(C)C/C(=N\O)c2ccc(-c3ccc(Cl)c(Cl)c3)cc21 [Example 41, (1E)-5-(3,4-dichlorophenyl)-3,3-dimethylindan-1-one oxime]
IC50 [1]: 456 nM

C[C@H](O)C(=O)[C@@]1(C)CC[C@H]2[C@@H]3CCC4=CC(=O)CCC4=C3CC[C@@]21C [Trimegestone]
EC50 ([3]; half-maximal increase in BrdU incorporation in T47D cells, individual studies (Exp), read-out: Estimated EC50): 0.017 nM and 0.014 nM and 0.019 nM

Reference: patent US7414142B2 (Wyeth, priority 2005, dated 2008)
